Measured values from US5776902A, “Boronophenyl analogs of phospholyrosines” (Trustees of Tufts University, priority 1995, dated 1998).

What was measured:
[1] = target: T1, SH2 mediated interaction of middle T and fyn (Homo sapiens, UniProt P06241); test: Effect on Middle T/fyn interaction (GST-Fyn pull-down of 32P-labeled middle T, autoradiography); type: binding; settings: GST-Fyn on glutathione-Sepharose beads, 32P-labeled polyoma Middle T, SDS gel autoradiography (FIG. 6); inhibitor 3.95×10^-4 M to 3.95×10^-5 M
T1 construct: host or cells: middle T: Sf9 cells (baculovirus co-expression with src)
T1 sequence (P06241 whole entry, species assumed): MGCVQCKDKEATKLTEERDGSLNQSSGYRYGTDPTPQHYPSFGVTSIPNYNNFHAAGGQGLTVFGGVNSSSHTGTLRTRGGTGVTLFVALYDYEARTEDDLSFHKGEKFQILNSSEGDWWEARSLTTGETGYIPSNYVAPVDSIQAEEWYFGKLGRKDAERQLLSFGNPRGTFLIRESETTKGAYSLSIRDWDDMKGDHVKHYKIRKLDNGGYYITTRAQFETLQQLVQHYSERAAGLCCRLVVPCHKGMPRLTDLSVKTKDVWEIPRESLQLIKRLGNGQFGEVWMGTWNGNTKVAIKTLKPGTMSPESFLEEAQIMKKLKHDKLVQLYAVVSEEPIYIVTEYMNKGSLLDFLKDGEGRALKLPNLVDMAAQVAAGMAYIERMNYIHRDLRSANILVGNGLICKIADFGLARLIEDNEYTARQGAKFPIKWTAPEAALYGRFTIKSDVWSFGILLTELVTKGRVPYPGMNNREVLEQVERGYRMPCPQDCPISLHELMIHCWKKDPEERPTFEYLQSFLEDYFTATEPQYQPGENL
Experimental: Approximately 10 μg of a GST-Fyn fusion protein bound to 10 μl of glutathione-Sepharose beads were incubated with 90 μl of buffer (TEB, pH 9.0) and 10 μl of DMSO or DMSO containing an isomer (#1 or #2) of compound 36 (lanes 2 and 3 equal 3.95×10^-4 M; lane 4 equals 1.32×10^-4 M; lane 5 equals 3.95×10^-5 M). Lane 1 contains no inhibitor. The lanes labeled "MT 315" (lanes 6 and 7) are reaction mixutures as above, but having 20 μg of peptide (middle T residues EEYMPMED) instead of the benzodiazepine 36. The label "pY" indicates the peptide was phosphorylated, while unphosphoryalated peptide is designated as "-". The reaction mixtures were incubated for 1 hour, then 100 μL ^32 P-labeled Middle T (polyoma), prepared from baculovirus co-expression of middle T and src in Sf9 cells, were added to each reaction and incubated for 1 hour more at 4° C. The sepharose was washed with twice with PBS, and once with distilled water, boiled in SDS dissociation buffer, and run on a 7.5% acrylamide SDS gel. Labeled MT was visualized on the gel by autoradiography, and the inhibition of MT/fyn interaction determined.

lck-SH2 = target: T2, lck-SH2 (Homo sapiens, UniProt P06239); test: IDEXX lck-SH2 binding assay (GST-SH2 beads, FITC-labeled peptide EPQYEEIPIYL); settings: inhibition of binding of FITC-labeled peptide to GST-lck SH2 beads (FIG. 7)
T2 construct: made in house; host or cells: E. coli
T2 sequence (P06239 127-224 limits assumed): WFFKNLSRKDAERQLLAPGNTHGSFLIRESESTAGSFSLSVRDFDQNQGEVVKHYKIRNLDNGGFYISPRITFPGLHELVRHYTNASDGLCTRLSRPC
Experimental: In order to assess the inhibitory activity of the present peptidomimetics, the ability of the subject compounds to inhibit the interaction between a specific peptide and an SH2 domain was determined. Various SH2 domains were subcloned in frame with the glutathione-S-transferase affinity tag of the pGEX vector system (Pharmacia catalog no. PGEX-4T-3). The resulting pGEX-E2 construct encoded a glutathione-S-transferase (GST)/SH2 fusion protein (Smith et al. (1988) Gene 67:31-40). The pGEX construct was introduced into E. coli by transfromation, and the transformants grown in liquid media (LB) in the presence of IPTG. Purification of GST/E2 fusion protein was by standard protocols (Current Protocols in Molecular Biology, eds. Ausubel et al. (NY:John Wiley & Sons, 1991); Pharmacia instruction booklet (for catalog no. 27-4570)) using a glutathione-sepharose column (Pharmacia catalog no. 27-4570). Briefly, the cells were pelleted and resuspended in buffer A (50 mM TRIS (pH7.5), 2 mM EDTA, 250 mM NaCl, 5% glycerol (V/V), 1% Tween (V/V), 1% Triton X 100 (V/V)), to which 2 mM PMSF and 15 mM 2-mercaptoethanol were added. […]

CC[C@H](C)[C@H](NC(=O)CN1C(=O)C(NC(=O)[C@H](Cc2ccc(OP(=O)(O)O)cc2)NC(C)=O)N=C(c2ccccc2)c2ccccc21)C(=O)OC (single isomer, unassigned; isomer #2) [isomer #2]
inhibition of MT/fyn interaction [1]: more potent inhibitor

CC[C@H](C)[C@H](NC(=O)CN1C(=O)C(NC(=O)[C@H](Cc2ccc(OP(=O)(O)O)cc2)NC(=O)OCC2c3ccccc3-c3ccccc32)N=C(c2ccccc2)c2ccccc21)C(=O)OC (stereo partly drawn) [FMOC-derivative, 1,3-Dihydro-1-[(methoxy-L-isoleucyl)carbonylmethyl)-5-phenyl-3(R,S)-{[(N-fluorenylmethoxycarbonyl)phosphono-L-tyrosyl]amino}-2H-1,4-benzodiazepin-2-one]
IC50 (lck-SH2): 48.2 µM

CC[C@H](C)[C@H](NC(=O)CN1C(=O)C(NC(=O)[C@H](Cc2ccc(OP(=O)(O)O)cc2)NC(C)=O)N=C(c2ccccc2)c2ccccc21)C(=O)OC (stereo partly shown) [compound 36]
IC50 (lck-SH2): 271 µM | inhibition of MT/fyn interaction [1]: both isomers of 36 displayed inhibitory action
